Laboratory results taken from ChEMBL document CHEMBL1201862, “PubChem BioAssay data set” (2004).
Activity calls are given as the source filed them.

Key:
[1] = molecular target: T1, Corticotropin-releasing factor receptor 2/Corticotropin-releasing factor-binding protein (Homo sapiens, UniProt P24387+Q13324); experiment: activators of CRF receptor 2 with binding protein – uHTS hits, confirmation (AID 602473); format: functional; details: read-out: EC50_Mean
T1 sequence (Q13324 whole entry): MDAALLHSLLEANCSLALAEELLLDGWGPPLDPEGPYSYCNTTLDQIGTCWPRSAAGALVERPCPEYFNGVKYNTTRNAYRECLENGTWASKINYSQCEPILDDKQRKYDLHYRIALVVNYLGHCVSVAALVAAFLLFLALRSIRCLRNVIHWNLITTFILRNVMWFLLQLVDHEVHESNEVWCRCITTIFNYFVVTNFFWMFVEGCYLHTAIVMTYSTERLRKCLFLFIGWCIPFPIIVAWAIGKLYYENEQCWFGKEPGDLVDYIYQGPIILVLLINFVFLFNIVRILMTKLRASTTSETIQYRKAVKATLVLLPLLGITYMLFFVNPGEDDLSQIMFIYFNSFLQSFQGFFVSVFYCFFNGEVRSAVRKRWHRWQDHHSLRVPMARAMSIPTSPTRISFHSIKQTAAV
T1 sequence (P24387 whole entry): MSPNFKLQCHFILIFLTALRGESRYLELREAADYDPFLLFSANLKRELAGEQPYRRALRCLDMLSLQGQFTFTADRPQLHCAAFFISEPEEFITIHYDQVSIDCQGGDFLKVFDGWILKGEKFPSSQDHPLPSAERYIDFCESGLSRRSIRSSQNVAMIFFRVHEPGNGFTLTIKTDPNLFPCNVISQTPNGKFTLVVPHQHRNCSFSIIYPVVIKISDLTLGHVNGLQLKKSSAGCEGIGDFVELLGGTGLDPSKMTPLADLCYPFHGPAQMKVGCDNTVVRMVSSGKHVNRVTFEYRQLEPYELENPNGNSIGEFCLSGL

[2] = molecular target: T1, Corticotropin-releasing factor receptor 2/Corticotropin-releasing factor-binding protein; experiment: Dose Response confirmation of uHTS hits for small molecule antagonists of the CRF-binding protein and CRF-R2 receptor complex.; format: functional; details: read-out: IC50_Mean
Nonstructural protein 1 = Nonstructural protein 1 (Influenza A virus, UniProt Q194T2); format: functional, Influenza A virus (A/California/07/2009(H1N1))
Genome polyprotein = Genome polyprotein (dengue virus type 2, UniProt P29990); experiment: flavivirus cap methylation enzyme inhibition – biochemical, confirmation dose response, primary screen (AID 588689); format: functional
[3] = non-specific 3'UTR reporter inhibition in Clone20-Shn3RL – cell-based, Renilla luciferase, cherry-picked, counter-screen for Shn3 inhibitor project, dose response (AID 624133); format: functional
Protein Wnt-3a = Protein Wnt-3a (Mus musculus, UniProt P27467); experiment: antagonism of Wnt3a pathway luciferase reporter – Wnt-LIGHT cells, luminescence, selectivity assay for Gli-SUFU antagonist project, dose response (AID 651570); format: functional; details: read-out: IC50_Mean;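 note: Wnt-LIGHT reporter cells stimulated with conditioned medium from Wnt3a-producing cells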
[4] = reduction of Shn3 3'UTR-driven luciferase in osteoblasts – cell-based, Clone20 osteoblasts, firefly luciferase, cherry-picked, dose response (AID 624132); format: functional;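 note: firefly luciferase luminescence from reporter carrying the Shn3 3'UTR in osteoblasts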
[5] = loss of viability in HepG2 cells – cell-based, CellTiter-Glo, cherry-picked, cytotoxicity control for Shn3 inhibitor project, dose response (AID 624134); format: functional
[6] = molecular target: T2, Histone-lysine N-methyltransferase NSD2 (Homo sapiens, UniProt O96028); format: biochemical
T2 sequence (O96028 whole entry): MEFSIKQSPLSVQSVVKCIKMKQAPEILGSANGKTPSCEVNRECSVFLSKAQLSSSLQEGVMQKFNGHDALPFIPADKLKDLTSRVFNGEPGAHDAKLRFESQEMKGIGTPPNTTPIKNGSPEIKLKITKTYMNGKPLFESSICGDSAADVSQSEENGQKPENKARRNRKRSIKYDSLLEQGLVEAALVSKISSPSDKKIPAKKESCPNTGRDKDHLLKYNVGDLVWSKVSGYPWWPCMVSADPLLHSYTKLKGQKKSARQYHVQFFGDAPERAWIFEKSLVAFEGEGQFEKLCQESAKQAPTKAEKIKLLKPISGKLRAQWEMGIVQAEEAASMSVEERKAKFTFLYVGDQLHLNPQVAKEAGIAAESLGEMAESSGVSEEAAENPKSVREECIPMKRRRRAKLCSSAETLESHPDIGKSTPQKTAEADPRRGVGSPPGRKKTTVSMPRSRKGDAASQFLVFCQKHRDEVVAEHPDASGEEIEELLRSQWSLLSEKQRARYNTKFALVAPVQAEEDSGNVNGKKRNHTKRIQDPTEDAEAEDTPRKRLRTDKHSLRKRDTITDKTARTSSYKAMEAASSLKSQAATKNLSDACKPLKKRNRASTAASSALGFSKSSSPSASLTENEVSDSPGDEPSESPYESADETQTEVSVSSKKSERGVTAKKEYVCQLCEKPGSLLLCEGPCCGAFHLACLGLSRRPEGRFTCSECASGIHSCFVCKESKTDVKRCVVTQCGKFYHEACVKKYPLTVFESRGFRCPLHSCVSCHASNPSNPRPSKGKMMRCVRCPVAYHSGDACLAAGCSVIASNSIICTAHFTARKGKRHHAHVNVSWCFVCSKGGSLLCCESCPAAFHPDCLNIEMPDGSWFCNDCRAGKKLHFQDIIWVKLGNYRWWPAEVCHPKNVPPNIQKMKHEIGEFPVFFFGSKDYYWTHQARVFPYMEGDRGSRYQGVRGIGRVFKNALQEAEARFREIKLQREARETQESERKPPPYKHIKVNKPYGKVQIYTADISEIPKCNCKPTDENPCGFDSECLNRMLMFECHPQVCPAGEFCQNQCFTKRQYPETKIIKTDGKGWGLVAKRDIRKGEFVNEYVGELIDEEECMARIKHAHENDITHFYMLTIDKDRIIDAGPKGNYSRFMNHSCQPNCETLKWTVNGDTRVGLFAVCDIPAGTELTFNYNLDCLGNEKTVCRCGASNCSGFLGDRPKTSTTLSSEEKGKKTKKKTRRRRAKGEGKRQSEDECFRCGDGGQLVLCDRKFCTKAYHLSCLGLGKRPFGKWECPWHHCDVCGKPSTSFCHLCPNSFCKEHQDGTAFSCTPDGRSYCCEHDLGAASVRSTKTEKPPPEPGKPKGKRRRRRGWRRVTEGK

[7] = molecular target: T3, Short transient receptor potential channel 4 (Mus musculus, UniProt Q9QUQ5); experiment: block of DAMGO-driven TRPC4 calcium entry – cell-based, HEK293 TRPC4/mu-opioid, Fluo-4 calcium, dose response (AID 434942); format: functional;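 note: potency of inhibitors blocking the TRPC4 calcium response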
T3 sequence (Q9QUQ5 whole entry): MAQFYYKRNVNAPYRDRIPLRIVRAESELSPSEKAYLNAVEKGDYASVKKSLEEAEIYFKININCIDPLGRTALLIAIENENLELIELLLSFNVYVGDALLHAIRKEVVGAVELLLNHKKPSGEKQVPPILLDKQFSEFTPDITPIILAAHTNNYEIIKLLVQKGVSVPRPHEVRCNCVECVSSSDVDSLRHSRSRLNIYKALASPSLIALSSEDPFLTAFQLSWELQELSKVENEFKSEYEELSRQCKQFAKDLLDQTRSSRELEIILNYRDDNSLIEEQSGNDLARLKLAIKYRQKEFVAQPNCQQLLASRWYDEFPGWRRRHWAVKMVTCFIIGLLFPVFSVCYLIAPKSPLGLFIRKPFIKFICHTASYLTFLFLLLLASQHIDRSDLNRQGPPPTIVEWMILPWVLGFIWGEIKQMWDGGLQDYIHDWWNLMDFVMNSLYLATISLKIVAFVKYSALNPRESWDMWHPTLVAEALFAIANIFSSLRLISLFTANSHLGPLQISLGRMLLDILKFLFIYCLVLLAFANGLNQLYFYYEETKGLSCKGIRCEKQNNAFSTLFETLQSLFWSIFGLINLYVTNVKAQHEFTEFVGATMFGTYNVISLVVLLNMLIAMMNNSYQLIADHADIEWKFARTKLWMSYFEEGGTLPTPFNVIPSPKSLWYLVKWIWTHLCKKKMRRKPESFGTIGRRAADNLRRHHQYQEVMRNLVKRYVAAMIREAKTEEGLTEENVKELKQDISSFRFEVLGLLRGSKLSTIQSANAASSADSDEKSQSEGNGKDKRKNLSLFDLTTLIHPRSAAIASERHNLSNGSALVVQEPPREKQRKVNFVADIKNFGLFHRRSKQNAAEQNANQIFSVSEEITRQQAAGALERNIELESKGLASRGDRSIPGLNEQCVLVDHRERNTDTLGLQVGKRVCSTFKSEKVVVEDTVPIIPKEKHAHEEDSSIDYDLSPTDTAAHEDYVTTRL

[8] = molecular target: T4, Ubiquitin-conjugating enzyme E2 N (Homo sapiens, UniProt P61088); format: functional;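 note: Dose-response confirmation in a TR-FRET assay detecting UBC13-driven polyubiquitin chain formation, inhibition measured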
T4 sequence (P61088 whole entry): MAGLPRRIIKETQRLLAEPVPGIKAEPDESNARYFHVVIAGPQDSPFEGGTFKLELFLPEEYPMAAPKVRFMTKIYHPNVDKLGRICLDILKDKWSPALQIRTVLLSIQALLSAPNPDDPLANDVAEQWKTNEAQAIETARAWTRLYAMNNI

[9] = HEK-293T cell viability reduction – luminescence, B-cell screen hits, cytotoxicity control for BCR NF-kB inhibitor project, dose response (AID 489021); format: functional, cell-based;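 note: HEK-293T cells carrying an NF-kB luciferase reporter; cells exposed to compound for about 14 hours before viability readout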

Nonstructural protein 1, sequence (Q194T2 whole entry): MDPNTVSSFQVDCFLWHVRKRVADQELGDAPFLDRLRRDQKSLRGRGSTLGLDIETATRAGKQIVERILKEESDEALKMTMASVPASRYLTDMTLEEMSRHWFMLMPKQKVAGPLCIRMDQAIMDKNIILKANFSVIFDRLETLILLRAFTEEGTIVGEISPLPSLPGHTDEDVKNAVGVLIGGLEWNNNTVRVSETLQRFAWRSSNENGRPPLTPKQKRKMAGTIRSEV
Genome polyprotein, sequence (P29990 2492-3391 limits assumed): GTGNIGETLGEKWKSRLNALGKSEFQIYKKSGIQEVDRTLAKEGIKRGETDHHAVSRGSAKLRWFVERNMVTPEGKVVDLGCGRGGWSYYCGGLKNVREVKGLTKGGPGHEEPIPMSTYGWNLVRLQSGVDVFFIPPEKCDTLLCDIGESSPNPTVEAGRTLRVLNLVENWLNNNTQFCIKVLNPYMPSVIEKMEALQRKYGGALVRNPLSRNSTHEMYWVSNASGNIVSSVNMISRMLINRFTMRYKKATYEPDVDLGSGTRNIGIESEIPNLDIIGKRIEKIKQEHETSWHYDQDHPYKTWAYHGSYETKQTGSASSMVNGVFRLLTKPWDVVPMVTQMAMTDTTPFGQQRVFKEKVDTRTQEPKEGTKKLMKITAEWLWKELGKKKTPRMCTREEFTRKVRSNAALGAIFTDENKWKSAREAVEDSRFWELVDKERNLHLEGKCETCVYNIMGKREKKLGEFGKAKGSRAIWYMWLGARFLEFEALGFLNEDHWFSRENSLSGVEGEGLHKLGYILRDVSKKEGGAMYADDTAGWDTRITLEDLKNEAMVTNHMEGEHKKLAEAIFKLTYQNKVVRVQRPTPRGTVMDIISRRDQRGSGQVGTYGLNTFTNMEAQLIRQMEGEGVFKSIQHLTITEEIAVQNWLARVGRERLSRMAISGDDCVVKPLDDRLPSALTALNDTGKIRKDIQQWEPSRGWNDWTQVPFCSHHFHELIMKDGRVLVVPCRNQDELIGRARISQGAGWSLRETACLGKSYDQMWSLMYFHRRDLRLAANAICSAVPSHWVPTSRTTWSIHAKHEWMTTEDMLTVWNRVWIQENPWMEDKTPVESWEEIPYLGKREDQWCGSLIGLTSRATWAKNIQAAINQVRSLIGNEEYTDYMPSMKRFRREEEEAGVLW
Protein Wnt-3a, sequence (P27467 whole entry): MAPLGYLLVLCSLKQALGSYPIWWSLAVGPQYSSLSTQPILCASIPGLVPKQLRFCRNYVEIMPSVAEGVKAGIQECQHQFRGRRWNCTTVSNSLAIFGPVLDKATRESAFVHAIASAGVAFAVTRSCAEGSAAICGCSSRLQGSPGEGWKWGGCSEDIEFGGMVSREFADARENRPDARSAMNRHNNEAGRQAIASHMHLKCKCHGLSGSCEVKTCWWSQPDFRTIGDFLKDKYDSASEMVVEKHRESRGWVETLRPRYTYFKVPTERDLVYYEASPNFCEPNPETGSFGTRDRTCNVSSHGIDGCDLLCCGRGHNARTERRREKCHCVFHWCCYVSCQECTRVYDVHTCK

For `Cc1nc(CNS(=O)(=O)c2ccc3ccccc3c2)cs1`, the EC50 [1] was > 53 µM (inactive), the IC50 [2] was > 47.1 µM (inactive) and the IC50 (Nonstructural protein 1) was 37.7 µM (active).

With `O=C(O)c1ccc(NS(=O)(=O)c2ccc3c(c2)C(=O)c2cc(S(=O)(=O)Nc4ccc(C(=O)O)cc4)ccc2-3)cc1` the IC50 (Genome polyprotein) was 95.9 µM (active).

With `CN(CCOc1ccc(Cl)cc1)C(=O)c1cccc(S(=O)(=O)N2CCN(c3ccc(F)cc3)CC2)c1` the AC50 [3] was 6.21 µM (active), the IC50 (Protein Wnt-3a) was 8.36 µM (active) and the AC50 [4] was 1.77 µM (active). The AC50 [5] was 2.46 µM (active).

For `Cc1ccc(-c2cc(C(F)(F)F)n3nc(C(=O)N4CCN5CCCC5C4)cc3n2)cc1` (stereo unspecified), the AC50 [6] was 16 µM (active).

In the case of `C=CCn1c(-c2ccc(S(=O)(=O)N3CCOCC3)cc2)cs/c1=N\c1ccccc1`, the AC50 [3] is reported as 5.6 µM (active), the AC50 [4] is reported as 1.52 µM (active) and the IC50 (Nonstructural protein 1) is reported as > 100 µM (active). For the same compound, the AC50 [5] was 40 µM (active).

With `CCN(CC)C(=O)C1CCCN(Cc2cccc(Oc3ccccc3)c2)C1` (stereo unspecified) the EC50 [7] was 2.37 µM (active).

For `Cc1ncc(S(=O)(=O)c2ccc(Cl)cc2)c(N)n1`, the IC50 [8] was > 20 µM (inactive).

With `CCN(CC(=O)Nc1c(F)cccc1F)C(=O)C1(c2ccccc2)CC1` the IC50 [9] was > 80 µM (inactive).

For `Cc1nn(-c2ccccc2)c2nc(C(F)(F)F)cc(O)c12`, the EC50 [7] was 6.68 µM (active).

With `Cc1ccccc1C(=O)NCC(=O)NNC(=S)NC(=O)c1ccccc1C` the IC50 [8] was > 20 µM (inactive).

With `COc1ccc(-c2noc(N3CCC(C(=O)Nc4ccc(F)cc4F)CC3)n2)cc1` the IC50 [9] was > 80 µM (inactive).

With `O=C(CCCCCN1C(=O)C2C3C=CC(C3)C2C1=O)Nc1ccc2ncccc2c1` (stereo unspecified) the AC50 [6] was 8.81 µM (active).

In the case of `Cc1nn(-c2ccc(N3CCCCC3)nn2)c(C)c1CCC(=O)Nc1ccccc1F`, the IC50 [9] is reported as > 80 µM (inactive).
